Source: patent US10689377B2 (Mirati Therapeutics, Inc., priority 2017, dated 2020)
pIC50: −log10 of the molar value.

What follows are compounds tested against KRas G12C (Homo sapiens, UniProt P01116, G12C) (assay: Cellular inhibition of KRas G12C measured by Phospho-ERK in NCI-H358 cells). Conditions: pERK(Thr202/Tyr204) normalized with GAPDH, NCI-H358 cells, 3 hours; read-out: IC50.
KRas G12C, sequence (P01116 1-188 isoform P01116-2 G12C): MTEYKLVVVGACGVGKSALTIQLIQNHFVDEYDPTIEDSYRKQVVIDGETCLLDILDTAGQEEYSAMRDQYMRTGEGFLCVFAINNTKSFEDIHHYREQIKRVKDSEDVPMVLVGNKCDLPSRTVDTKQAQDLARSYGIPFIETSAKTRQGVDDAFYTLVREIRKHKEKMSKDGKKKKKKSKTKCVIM
Type: cell-based
How it was run: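 Readout is pERK(Thr202/Tyr204) immunofluorescence normalized to GAPDH, expressed as percent of DMSO control and fitted with a 4-parameter curve for IC50. Attached NCI-H358 cells received compound for 3 hours in 0.5% DMSO, followed by fixation and methanol permeabilization.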
Compound C=CC(=O)N1CCN(c2nc(OC[C@@H]3CCCN3C)nc3c2CCN(c2cccc4ccccc24)C3)C(CC#N)C1 (stereo partly drawn) [Example 439, 2-(4-acryloyl-1-(2-(((S)-1-methylpyrrolidin-2-yl)methoxy)-7-(naphthalen-1-yl)-5,6,7,8-tetrahydropyrido[3,4-d]pyrimidin-4-yl)piperazin-2-yl)acetonitrile] has a pIC50 of less than 6.00. For C=CC(=O)N1CCN(c2nc(OC[C@@H]3[C@H](F)CCN3C)nc3c2CCN(c2cccc4ccccc24)C3)C[C@@H]1CC#N [Example 440, 2-((S)-1-acryloyl-4-(2-(((2R,3R)-3-fluoro-1-methylpyrrolidin-2-yl)methoxy)-7-(naphthalen-1-yl)-5,6,7,8-tetrahydropyrido[3,4-d]pyrimidin-4-yl)piperazin-2-yl)acetonitrile], the pIC50 was 6.00 to 10.00. For C=CC(=O)N1CCN(c2nc(OC[C@H]3CCCN3C)nc3c2CCN(c2cccc4ccccc24)C3)C[C@@H]1CC#N [Example 441, 2-((S)-1-acryloyl-4-(2-(((R)-1-methylpyrrolidin-2-yl)methoxy)-7-(naphthalen-1-yl)-5,6,7,8-tetrahydropyrido[3,4-d]pyrimidin-4-yl)piperazin-2-yl)acetonitrile], the pIC50 was 6.00 to 10.00. Work on C=CC(=O)N1CCN(c2nc(OC[C@@H]3CCCN3C)nc3c2CCN(c2cccc4cccn24)C3)C[C@@H]1CC#N [Example 442, 2-((S)-1-acryloyl-4-(7-(indolizin-5-yl)-2-(((S)-1-methylpyrrolidin-2-yl)methoxy)-5,6,7,8-tetrahydropyrido[3,4-d]pyrimidin-4-yl)piperazin-2-yl)acetonitrile] yielded a pIC50 of 6.00 to 10.00. C=CC(=O)N1CCN(c2nc(OC[C@H]3CN(C)CCO3)nc3c2CCN(c2cccc4ccccc24)C3)CC1CC#N (stereo partly drawn) [Example 443, 2-(1-Acryloyl-4-(2-(((R)-4-methylmorpholin-2-yl)methoxy)-7-(naphthalen-1-yl)-5,6,7,8-tetrahydropyrido[3,4-d]pyrimidin-4-yl)piperazin-2-yl)acetonitrile] was tested, and the pIC50 was 6.00 to 10.00. C=CC(=O)N1CCN(c2nc(OC[C@@H]3CN(C)CCO3)nc3c2CCN(c2cccc4ccccc24)C3)CC1CC#N (stereo partly drawn) [Example 444, 2-(1-acryloyl-4-(2-(((S)-4-methylmorpholin-2-yl)methoxy)-7-(naphthalen-1-yl)-5,6,7,8-tetrahydropyrido[3,4-d]pyrimidin-4-yl)piperazin-2-yl)acetonitrile] gave a pIC50 of 6.00 to 10.00. C=CC(=O)N1CCN(c2nc(OC[C@@H]3COCCN3C)nc3c2CCN(c2cccc4ccccc24)C3)CC1CC#N (stereo partly drawn) [Example 445, 2-(1-Acryloyl-4-(2-(((S)-4-methylmorpholin-3-yl)methoxy)-7-(naphthalen-1-yl)-5,6,7,8-tetrahydropyrido[3,4-d]pyrimidin-4-yl)piperazin-2-yl)acetonitrile] was tested, and the pIC50 was 6.00 to 10.00. C=CC(=O)N1CCN(c2nc(OC[C@H]3COCCN3C)nc3c2CCN(c2cccc4ccccc24)C3)CC1CC#N (stereo partly drawn) [Example 446, 2-(1-Acryloyl-4-(2-(((R)-4-methylmorpholin-3-yl)methoxy)-7-(naphthalen-1-yl)-5,6,7,8-tetrahydropyrido[3,4-d]pyrimidin-4-yl)piperazin-2-yl)acetonitrile] gave a pIC50 of less than 6.00. In the case of C=CC(=O)N1CCN(c2nc(OC[C@@H]3CC(F)(F)CN3C)nc3c2CCN(c2cccc4ccccc24)C3)C[C@@H]1CC#N [Example 447, 2-((S)-1-Acryloyl-4-(2-(((S)-4,4-difluoro-1-methylpyrrolidin-2-yl)methoxy)-7-(naphthalen-1-yl)-5,6,7,8-tetrahydropyrido[3,4-d]pyrimidin-4-yl)piperazin-2-yl)acetonitrile], the pIC50 was 6.00 to 10.00. In the case of C=CC(=O)N1CCN(c2nc(OC[C@H]3CN(C)C4(CC4)CO3)nc3c2CCN(c2cccc4ccccc24)C3)C[C@@H]1CC#N [Example 448, 2-((S)-1-Acryloyl-4-(2-(((R)-4-methyl-7-oxa-4-azaspiro[2.5]octan-6-yl)methoxy)-7-(naphthalen-1-yl)-5,6,7,8-tetrahydropyrido[3,4-d]pyrimidin-4-yl)piperazin-2-yl)acetonitrile], the pIC50 was 6.00 to 10.00. C=CC(=O)N1CCN(c2nc(OC[C@@H]3CCCN3C)nc3c2CCN(c2ccccc2C(F)F)C3)CC1CC#N (stereo partly shown) [Example 449] showed a pIC50 of 6.00 to 10.00. Compound C=CC(=O)N1CCN(c2nc(OC[C@H]3CN(C)CCO3)nc3c2CCN(c2cccc4ccccc24)C3)C[C@@H]1CC#N [Example 450, 2-((S)-1-Acryloyl-4-(2-(((R)-4-methylmorpholin-2-yl)methoxy)-7-(naphthalen-1-yl)-5,6,7,8-tetrahydropyrido[3,4-d]pyrimidin-4-yl)piperazin-2-yl)acetonitrile] has a pIC50 of 6.00 to 10.00. Work on C=CC(=O)N1CCN(c2nc(OC[C@H]3CN(C)[C@H](C)CO3)nc3c2CCN(c2cccc4ccccc24)C3)C[C@@H]1CC#N [Example 451, 2-((S)-1-Acryloyl-4-(2-(((2R,5R)-4,5-dimethylmorpholin-2-yl)methoxy)-7-(naphthalen-1-yl)-5,6,7,8-tetrahydropyrido[3,4-d]pyrimidin-4-yl)piperazin-2-yl)acetonitrile] yielded a pIC50 of 6.00 to 10.00. C=CC(=O)N1CCN(c2nc(OC[C@H]3CN(C)C(C)(C)CO3)nc3c2CCN(c2cccc4ccccc24)C3)C[C@@H]1CC#N [Example 452, 2-((S)-1-Acryloyl-4-(7-(naphthalen-1-yl)-2-(((R)-4,5,5-trimethylmorpholin-2-yl)methoxy)-5,6,7,8-tetrahydropyrido[3,4-d]pyrimidin-4-yl)piperazin-2-yl)acetonitrile] gave a pIC50 of 6.00 to 10.00. Compound C=CC(=O)N1CCN(c2nc(OC[C@@H]3CCCN3C)nc3c2CCN(c2c(C)c(C)cc4[nH]ncc24)C3)CC1 [Example 453, 1-[4-[7-(5,6-dimethyl-1H-indazol-4-yl)-2-[[(2S)-1-methylpyrrolidin-2-yl]methoxy]-6,8-dihydro-5H-pyrido[3,4-d]pyrimidin-4-yl]piperazin-1-yl]prop-2-en-1-one] has a pIC50 of 6.00 to 10.00. C=CC(=O)N1CCN(c2nc(OCCN3CCC(F)(F)CC3)nc3c2CCN(c2cccc4cccc(Cl)c24)C3)C[C@@H]1CC#N [Example 454] gave a pIC50 of 6.00 to 10.00. C=CC(=O)N1CCN(c2nc(OCCN3CCCC(F)(F)C3)nc3c2CCN(c2cccc4cccc(Cl)c24)C3)C[C@@H]1CC#N [Example 455, 2-[(2S)-4-[7-(8-chloro-1-naphthyl)-2-[2-(3,3-difluoro-1-piperidyl)ethoxy]-6,8-dihydro-5H-pyrido[3,4-d]pyrimidin-4-yl]-1-prop-2-enoyl-piperazin-2-yl]acetonitrile] gave a pIC50 of 6.00 to 10.00. C=CC(=O)N1CCN(c2nc(OC[C@@H]3CCCN3C)nc3c2CCN(c2c(C)c(C)cc4[nH]ccc24)C3)CC1 [Example 457, 1-[4-[7-(5,6-dimethyl-1H-indol-4-yl)-2-[[(2S)-1-methylpyrrolidin-2-yl]methoxy]-6,8-dihydro-5H-pyrido[3,4-d]pyrimidin-4-yl]piperazin-1-yl]prop-2-en-1-one] showed a pIC50 of 6.00 to 10.00. Compound CC#CC(=O)N1CCN(c2nc(OC[C@@H]3CCCN3C)nc3c2CCN(c2cccc4cccc(C)c24)C3)C[C@@H]1CC#N [Example 458, 2-((S)-1-(but-2-ynoyl)-4-(7-(8-methylnaphthalen-1-yl)-2-(((S)-1-methylpyrrolidin-2-yl)methoxy)-5,6,7,8-tetrahydropyrido[3,4-d]pyrimidin-4-yl)piperazin-2-yl)acetonitrile] has a pIC50 of 6.00 to 10.00. Cc1cccc2cccc(N3CCc4c(nc(OC[C@@H]5CCCN5C)nc4N4CCN(C(=O)/C=C/CN(C)C)[C@@H](CC#N)C4)C3)c12 [Example 459, 2-((S)-1-((E)-4-(dimethylamino)but-2-enoyl)-4-(7-(8-methylnaphthalen-1-yl)-2-(((S)-1-methylpyrrolidin-2-yl)methoxy)-5,6,7,8-tetrahydropyrido[3,4-d]pyrimidin-4-yl)piperazin-2-yl)acetonitrile] was tested, and the pIC50 was 6.00 to 10.00. Compound Cc1cccc2cccc(N3CCc4c(nc(OC[C@@H]5CCCN5C)nc4N4CCN(C(=O)/C=C/CN5CCOCC5)[C@@H](CC#N)C4)C3)c12 [Example 460, 2-[(2S)-4-[7-(8-methyl-1-naphthyl)-2-[[(2S)-1-methylpyrrolidin-2-yl]methoxy]-6,8-dihydro-5H-pyrido[3,4-d]pyrimidin-4-yl]-1-[(E)-4-morpholinobut-2-enoyl]piperazin-2-yl]acetonitrile] has a pIC50 of 6.00 to 10.00. In the case of C=CC(=O)N1CCN(c2nc(OC[C@@H]3CCCN3C)nc3c2CCN(c2cccc4cccc(C)c24)C3)C[C@H]1CC#N [Example 461, 2-[(2R)-4-[7-(8-methyl-1-naphthyl)-2-[[(2S)-1-methylpyrrolidin-2-yl]methoxy]-6,8-dihydro-5H-pyrido[3,4-d]pyrimidin-4-yl]-1-prop-2-enoyl-piperazin-2-yl]acetonitrile], the pIC50 was 6.00 to 10.00. In the case of Cc1cccc2cccc(N3CCc4c(nc(OCCC(=O)N(C)C)nc4N4CCN(C(=O)/C=C/CN(C)C)[C@@H](CC#N)C4)C3)c12 [Example 463, (S,E)-3-((4-(3-(cyanomethyl)-4-(4-(dimethylamino)but-2-enoyl)piperazin-1-yl)-7-(8-methylnaphthalen-1-yl)-5,6,7,8-tetrahydropyrido[3,4-d]pyrimidin-2-yl)oxy)-N,N-dimethylpropanamide], the pIC50 was 6.00 to 10.00. C=CC(=O)N1CCN(c2nc(OC[C@@H]3CCCN3C)nc3c2CCN(c2cccc4cccc(Br)c24)C3)C[C@@H]1CC#N [Example 464, 2-((S)-1-acryloyl-4-(7-(8-bromonaphthalen-1-yl)-2-(((S)-1-methylpyrrolidin-2-yl)methoxy)-5,6,7,8-tetrahydropyrido[3,4-d]pyrimidin-4-yl)piperazin-2-yl)acetonitrile] gave a pIC50 of 6.00 to 10.00. With C=CC(=O)N1CCN(c2nc(OC[C@@H]3CCCN3C)nc3c2CCN(c2cccc4ccccc24)C3)[C@@H](C#N)C1 [Example 465, (R)-4-acryloyl-1-(2-(((S)-1-methylpyrrolidin-2-yl)methoxy)-7-(naphthalen-1-yl)-5,6,7,8-tetrahydropyrido[3,4-d]pyrimidin-4-yl)piperazine-2-carbonitrile] the pIC50 was less than 6.00.
